The values below come from patent publication US20170172959A1, “D-SERINE FOR THE TREATMENT OF VISUAL SYSTEM DISORDERS” (Allergan, Inc., priority 2011, published 2017).

“Also recorded” adds a separate entry of the source.

Test [1] deals with primary visual cortex of adult rats. Put plainly: LTP in visual cortex slice (fEPSP amplitude after theta burst stimulation). The note with it: adult Sprague Dawley rat visual cortex slices; compound infused 15 minutes before LTP induction; LTP values at 30 minutes after induction; FIG. 1. It is filed as cell-based. The method, then: LTP in Visual Cortex Slice: Following decapitation of the rat, the brain was rapidly removed and immersed in ice-cold artificial cerebrospinal fluid (ACSF) containing 124 mM NaCl, 3 mM KCl, 1.25 mM KH2PO4, 3.4 mM CaCl2, 2.5 mM MgSO4, 26 mM NaHCO3, and 10 mM D-glucose. A block of visual cortex was created by removing the frontal 2/3 portion of the brain and the cerebellum. Coronal visual cortex slices of 375 μm were prepared from adult Sprague Dawley (SD) rats using a vibratome (VT 1000 S, Leica). The slices were maintained in an interface recording chamber perfused with preheated ACSF. Slices were continuously perfused with this solution at a rate of 1.00-1.50 ml/min while the surface of the slices was exposed to warm, humidified 95% O2/5% CO2 and maintained at 31±1° C. Visual cortex slices were allowed to recover for 1 hr before recording began. […] This was repeated 2 additional times with a 1 minute intertrain interval, and the level of LTP was recorded for at least 30 min. Changes in amplitude of the synaptic response were used to measure the extent of LTP because it was determined to be the more consistent parameter than the slope of the response. […] Statistical comparisons were done with LTP values recorded at 30 minutes after induction.

Test [2] relates to blue-light treated Long-Evans rats. Briefly: Contrast sensitivity by sweep VEP in rats with retinal damage induced by blue-light exposure. It is filed as in vivo, rat. To be noted: 100 or 600 mg/kg injected, saline control, cross-over; measured 30 minutes after treatment; spatial frequency 0.575 cpd; sixteen (600 mg/kg) and fifty weeks (100 mg/kg) after blue-light treatment; FIG. 3. The method, then: Two doses of D-serine were tested and vehicle (saline) was used as a control. Half of the rats were injected with either 100 or 600 mg/kg D-serine and the other half with saline in the first test; cross-over exposure took place one week later; the spatial frequencies were fixed at 0.575 cycles per degree (cpd). In FIG. 3, the mean values of contrast sensitivity are shown for rats treated with D-serine or saline, with a baseline taken prior to treatment (“pre”) and the contrast sensitivity measured 30 minutes after treatment (“post”).
Sweep visually evoked potential (sweep VEP, sVEP), which was first introduced by Regan in 1973, has become an important technique to measure visual function (VF). It is an objective method that can be used to assess contrast sensitivity (CS) in infants, young children and people with special needs. It was adapted to measure CS in animals.
VEP recording: The recording electrodes were permanently implanted into the right visual cortex of Long Evans rats at lambda and 4.5 mm lateral to the midline, to a depth of 800 microns (layer III/IV). […]
Visual stimuli: Stimuli were presented on a CRT computer monitor and consist of full-field sine-wave gratings at fixed special frequency (0.5, 0.575 or 0.65 cpd in FIG. 1 and 0.575 cpd in FIG. 2), reversing at 6.25 Hz. […] Contrast sensitivity (CS) is calculated as 1/CT.

Test [3] relates to slices of kitten visual cortex. To be noted: Neuroscience Letters 303 (2001) 95-98; cited from earlier work.

Regarding `N[C@H](CO)C(=O)O` [D-serine], the “long-term potentiation (LTP) in the primary visual cortex” value in test [1] is listed as “dose-dependently facilitates long-term potentiation (LTP); also recorded: significantly enhanced the LTP”. Moreover, in test [2], the contrast sensitivity result was “improved the contrast sensitivity; also recorded: dose-dependent improvement in contrast sensitivity; also recorded: enhances contrast sensitivity and visual function”. Besides, in test [3], the “LTP enhancement by D-serine alone” value is “did not enhance LTP” and the “effect on LTP suppression by the co-agonist site antagonist 7-chlorokynurenic acid” value is reported as “only produced a reversal of the suppressant effects”.
